Results taken from patent publication US4820873A, “Pyrene derivatives” (priority 1984, dated 1989).
Where a name gives a salt, the structure may show the parent alone.

Columns and labels:
P388/0 tumor cells = experiment: Lymphocytic Leukemia P388/0 Test; assay type: in vivo, CD2-F1 mice; conditions: median survival time; intraperitoneal, days 1, 5, 9; active if ≥120%; Optimal Dose (mg/kg): 2A 250; 2B 450; 3 120; 4 200; 5A 303; 6 366; 7 220; 8 300; 1A 300; 10 198; 11 300; 13 220; 15 555; 16 1013; 17B 250; 18 300; 19 40; 20G 125; 21C 168; 22D 180; 23B 18O
Text: (§1) Methods for evaluating the antitumor activity of these compounds are essentially those used in the Tumor Panel by the Development Therapeutics Program, Division of Cancer Treatment, National Cancer Institute, A. Goldin, et al., Methods in Cancer Research, Vol. XVI, p. 165, Academic Press (1979). Some modifications in dose level and schedule have been made to increase the testing efficiency.
(§2) CD2-F1 mice, of the same sex, weighing 20±3 g, are used for this test. Control and test animals are injected intraperitoneally with a suspension of ~10^6 viable P388/0 tumor cells on day 0. In each test, several dose levels which bracket the LD20 of the compound are evaluated; each dose level group contains 6 animals. The test compounds are prepared either in physiologic saline containing 0.05% Tween 80 or distilled water containing 5% dextrose and are administered intraperitoneally on days 1, 5, and 9 relative to tumor implant. Doses are on a mg/kg basis according to individual animals' body weights. The day of death for each animal is recorded, the median identified for each group and the ratios of median survival time for treated (T)/control (C) groups are calculated. The criterion for activity is T/C×100≥120%.

LD20 in the P388/0 test = assay type: in vivo, CD2-F1 mice; conditions: intraperitoneal, days 1, 5, 9; doses are on a mg/kg basis
Description: as §2

LD50 Tests = conditions: in vivo; IP single dose - CD1 Male Mouse
Text: |(IP single dose - CD1 Male Mouse)

[1] = test system: Nippostrongylus brasiliensis (Immature - free living stages); experiment: Anthelmintic screening, Nippostrongylus brasiliensis; assay type: cell-based
Text: Anthelmintic testing against Nippostrongylus brasiliensis was done using methods as outlined in D. C. Jenkins, R. Armitage, and T. S. Carrington, Zetschrift fur Parasitenkunde 63, 261-269 (1980).

[2] = test system: Candida albicans (CN1863); experiment: Antifungal screening, Candida albicans, broth and agar dilution assays; assay type: cell-based; conditions: Medium: Wellcotest sensitivity test agar plus 7% lysed horse blood
Text: Antifungal testing against Candida albicans (CN1863) was done with slight modifications using a combination of broth and agar dilution assays as outlined in Laboratory Handbook of Medical Mycology, Chapter 6, pages 441-446, M. R. McGinnis, Academic Press, New York, NY, 1980.
Medium: Wellcotest* sensitivity test agar plus 7% lysed horse blood.

Trichomonas vaginalis = experiment: Antiprotozoal testing, Trichomonas vaginalis (in vitro); assay type: cell-based; conditions: 40 mg/L, Stenton or Modified Diamond's medium, read-out: Result (screen code, inhibition)
Text: Antiprotozoal testing against Trichomonas vaginalis was done using methods outlined by R. M. Michaels in Advances in Chemotherapy, 3, 39-108 (1968).
(Stenton or Modified Diamond's medium)

L1210 cells = experiment: Lymphocytic Leukemia L1210 Test; assay type: in vivo, CD-2-F1 mouse; conditions: 150 mg/kg; protocol as P388/0 (intraperitoneal, days 1, 5, 9); active if ≥125%
Text: as §1, §2
The protocol for this test is identical to that for P388/0, except that the number of L1210 cells implanted on day 0 is ~105/mouse. […]

[3] = test system: Mycoplasma smegmatis (S3264); experiment: Antibacterial screening, Mycoplasma smegmatis, agar dilution assay; assay type: cell-based
Text: Antibacterial testing against Mycoplasma smegmatis (S3264) and Streptococcus pyogens (CN10) was done with slight modifications using standard agar dilution assays as outlined in Manual of Clinical Microbiology, Second Ed., E. H. Lennette, E. H. Spaulding and J. P. Truant Eds., American Society for Microbiology, Washington, DC, 1974.

Lewis Lung Carcinoma = Lewis Lung Carcinoma Test; assay type: in vivo, mouse (BD-F1 mice; tumor from C57B1/6 mouse); conditions: 150 mg/kg; administered as in P388/0 protocol; active if ≥140%
Text: as §1
This tumor arose spontaneously in the lung of a C57B1/6 mouse and is maintained by subcutaneous passage in that strain. The solid tumor is excised aseptically and placed in sterile saline. Pieces of viable tumor tissue are minced finely with scissors and forced through a 200 mesh stainless steel screen to disaggregate the tumor cells into a suspension. 10^6 Viable cells and injected intravenously into the tail vein of BD-F1, mice of the same sex weighing 20±3 g. In each test, several dose levels which bracket the LD20 for the compound are evaluated. Ten animals are included in each dose level group, and twenty animals in the untreated control group. The test compounds are prepared and aministered as in the P388/0 protocol. The day of death for each animal is recorded, the median identified for each group and the ratios of median survival time for treated (T)/control (C) groups are calculated. The criterion for activity is T/C×100≥140%.

Row | Compound | T/C × 100% (Excluding 30 Day Survivors) (P388/0 tumor cells) | LD20 (LD20 in the P388/0 test) | LD50 (LD50 Tests) [mg/kg] | MIC [1] [µg/mL] | MIC [2] [µg/mL] | inhibition at 40 µg/mL (Trichomonas vaginalis) [%] | T/C × 100% Excluding 30 day Survivors (L1210 cells) | MIC [3] [µg/mL] | T/C × 100% Excluding 60 day Survivors (Lewis Lung Carcinoma) [%]
1 | 2-((6-Bromo-1-pyrenylmethyl)amino)-2-methyl-1,3-propanediol hydrochloride and 2-((8-Bromo-1-pyrenylmethyl)amino)-2-methyl-1,3-propanediol hydrochloride [Example 17B] | +135% | 557 |  |  |  |  |  |  | 
2 | CC(CO)(CO)NCc1ccc2ccc3cccc4ccc1c2c34 [Example 1A, 2-methyl-2-((1-pyrenylmethyl)amino)-1,3-propanediol hydrochloride] |  | 375 | 350 | 50 | 50 | 76 to 100 | +129% | ≤ 5 | 
3 | CC(CO)(CO)NCc1ccc2ccc3cccc4ccc1c2c34 [Example 1B, 2-methyl-2-((1-pyrenylmethyl)amino)-1,3-propanediol methanesulfonate] |  |  |  |  |  |  |  |  | 208
